Measured values as given in article PMC11187126, “Structure and dynamics of the pyroglutamylated RF-amide peptide QRFP receptor GPR103” (Nature Communications, 2024).
Where two headings read alike, the source gives them in different places. No end group written: not given here.

Molecular target: T1, GPR103 W286^6.48A (Homo sapiens, UniProt Q96P65, W286A)
T1 construct: we used human full-length QRFPR-encoding plasmids; expressed in transfected cells; host or cells: HEK293 cells (HEK293A in the flow cytometry section), pCAGGS vector
T1 sequence (Q96P65 1-431 W286A): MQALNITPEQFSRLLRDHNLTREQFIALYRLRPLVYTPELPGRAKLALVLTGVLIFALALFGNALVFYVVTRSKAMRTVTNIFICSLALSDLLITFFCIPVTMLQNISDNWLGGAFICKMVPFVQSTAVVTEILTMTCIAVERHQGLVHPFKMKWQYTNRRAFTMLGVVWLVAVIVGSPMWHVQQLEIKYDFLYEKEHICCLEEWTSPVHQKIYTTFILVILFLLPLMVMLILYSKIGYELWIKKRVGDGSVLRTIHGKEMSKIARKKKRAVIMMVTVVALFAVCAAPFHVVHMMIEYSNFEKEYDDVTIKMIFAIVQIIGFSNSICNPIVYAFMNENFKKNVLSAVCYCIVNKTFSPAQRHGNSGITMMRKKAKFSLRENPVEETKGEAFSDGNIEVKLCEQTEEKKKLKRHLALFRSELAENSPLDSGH
Experiment: TGFα shedding assay; Exp. level WT (1:20)
Type: cell-based
Experimental: For the TGFα shedding assay and the flow cytometry analysis, we used human full-length QRFPR-encoding plasmids. Specifically, GPR103 was N-terminally modified with an HA signal sequence followed by a FLAG epitope and then a flexible linker ([…]; the FLAG epitope is underlined) and inserted into the pCAGGS vector. Plasmid encoding GPR103 mutants were generated using Quickchange Site-Directed Mutagensis kit (Agilent).
The TGFα shedding assay was performed as described previously with minor modifications. Plasmid transfection was performed in a 6-well plate with a mixture of 500 ng (per well in a 6-well plate) AP-TGFα-encoding plasmid and 200 ng GPR103-encoding plasmid. After 1-day culture, the transfected cells were harvested by trypsinization, pelleted by centrifugation at 190 × g for 5 min, and washed once with 5 mM HEPES (pH 7.4)-containing Hank’s Balanced Salt Solution (HBSS). After centrifugation, the cells were resuspended in 8 mL of the HEPES-containing HBSS. The cell suspension was seeded in a 96-well culture plate (cell plate) at a volume of 90 μL (per well hereafter) and incubated in a 37 °C incubator with 5% CO2 for 30 min. […] After spinning the cell plates at 190 × g for 2 min, 80 μL of conditioned media was transferred to an empty 96-well plate (conditioned media (CM) plate). Then, 80 μL of AP reaction solution (10 mM p-nitrophenylphosphate (p-NPP), 120 mM Tris-HCl (pH 9.5), 40 mM NaCl, and 10 mM MgCl2) was dispensed into the cell plates and the CM plates. Absorbance at 405 nm of the plates was measured using a microplate reader (SpectraMax 340 PC384, Molecular Devices) before and after 1-h incubation at room temperature. Ligand-induced AP-TGFα release was calculated by subtracting spontaneous AP-TGFα release signal from ligand-induced AP-TGFα release signal. The AP-TGFα release signals were fitted to a four-parameter sigmoidal concentration–response curve, using the Prism 10 software (GraphPad Prism). For each replicate experiment, the pEC50 parameter (negative logarithmic values of EC50 values) of the individual GPR103 mutants were normalized to that of the wild-type GPR103 performed in parallel, and resulting ∆pEC50 values were used to denote ligand response activity of the mutants. […]
Exp. le vel: WT (1:5 0)Exp. le vel: WT (1:5 0)Exp. le vel: WT (1:5 0)Exp. le vel: WT (1:2 0)Exp. le vel: WT (1:2 0)Exp. le vel: WT (1:1 0) […]
L1 4N - t e r mA F2 5N - t e r mA I 2 6N - t e r mA Y 2 9N - t e r mA C 9 82 .5 7A T10 22 .6 1A Exp . l eve l: WT (1 :5)Exp . l evel : >WT (1 :1)Exp. le vel: WT (1:2 0)Exp. le vel: WT (1:2 0)Exp. le vel: WT (1:5 0)Exp . l eve l: WT (1 :1) […]
Exp. le vel: WT (1:1 0)Exp. le vel: WT (1:2 0) C 1 1 83 .2 5AExp. le vel: WT (1:5 0)Exp. le vel: WT (1:5 0)Exp. le vel: WT (1:2 0)Exp . l eve l: WT (1 :5) […]
Exp. le vel: WT (1:5 0)Exp. le vel: WT (1:1 0)Exp. le vel: WT (1:5 0) E203ECL2AExp . l evel : >WT (1 :1)Exp. le vel: WT (1:5 0)Exp. le vel: WT (1:5 0) […]
Exp . l eve l: WT (1 :1) F28Exp. le vel: WT (1:5 0) C 2 8 56 .4 7AExp. le vel: WT (1:2 0) WExp. le vel: WT (1:2 0) F28Exp. le vel: WT (1:5 0)Exp . l evel : >WT (1 :1) […]
Exp. le vel: WT (1:5 0)Exp. le vel: WT (1:5 0) C 3 2 77 .4 8AExp . l eve l: WT (1 :5)Exp . l evel : >WT (1 :1)Exp . l evel : >WT (1 :1) […]
Suppl eme nt ary Figure 1 | Mutational analysis of GPR103. […]
mutants. Data are presented as mean values ± SEM, normally n=3-5; dots), each performed in triplicate. b-d Cell-surface expression (b) and QRFP26-in-duced activation of GPR103 (c, d) were analyzed by the flow cytometry and the TGFα shedding assay, respectively. From the concentration–response curves (a), Emax (c) and ΔpEC50 (d) values relative to the wild type were calculated. Colors in the mutant bars indicate an expression level matching to that of titrated wild type. Statistical analyses were performed using the ordinary one-way ANOVA followed by Dunnett tests with the expression-matched […]

Emax (Exp. #1): 72.87 % WT
Emax (Exp. #2): 70.40 % WT
Emax (Exp. #3): 78.23 % WT
Emax (mean, read-out: Emax): 73.8%
EC50 (n = 3): 1120 nM
Emax (n = 3, read-out: Emax): 75.7 ± 1.9%
Substance: TSGPLGNLAEELNGYSRKKGGFSFRF-NH2 [QRFP26]
